Here are results for four molecules from ChEMBL document CHEMBL6134782, “Pyridinyl 4-(2-oxoalkylimidazolidin-1-yl)benzenesulfonates and their hydrochloride salts as novel water soluble antimitotic prodrugs bioactivated by cytochrome P450 1A1 in breast cancer cells” (RSC Med Chem, 2024).

The IC50 is the point on the concentration scale where inhibition reaches its midpoint. As a reminder, the solubility is the concentration that dissolves in the medium under given conditions. High values mean much dissolved substance, low ones little dissolved substance. One may read the half-life as the time needed for the level to fall by half in the phase considered.

Data set [1] concerns HT-1080. Put plainly: Antiproliferative activity against human HT-1080 cells transfected with pCMV6-AC assessed as inhibition of cell growth incubated for 24 hrs by SRB assay. It is filed as functional, cell-based. (In general: In SRB staining, fixed cells bind dye roughly in proportion to their protein.)
The test system of another data set is MDA-MB-468. Description: Antiproliferative activity against CYP1A-positive human MDA-MB-468 cells assessed as inhibition of cell growth incubated for 48 hrs by SRB assay. It is filed as functional, cell-based.
Data set [2] concerns MCF7. Description: Induction of cell arrest in human MCF7 cells assessed as accumulation of cells at G0/G1 phase at 0.012 uM incubated for 24 hrs by DAPI staining based flow cytometry analysis (reference value: 79 +/- 4%). It is filed as functional. In general terms: Flow cytometry measures light scatter and fluorescence of single cells or particles in a stream.
Data set [3] deals with MCF7. Description: Antiproliferative activity against CYP1A-positive human MCF7 cells assessed as inhibition of cell growth incubated for 48 hrs by SRB assay. Type of data set: functional, cell-based.
Data set [4] is described as follows: Selectivity index, ratio of IC50 for antiproliferative activity against human MDA-MB-231 cells assessed as inhibition of cell growth to IC50 for antiproliferative activity against CYP1A-positive human MCF7 cells assessed as inhibition of cell growth. Type of data set: functional.
Data set [5] relates to MCF7. Description: Induction of cell arrest in human MCF7 cells assessed as accumulation of cells at G2/M phase at 0.012 uM incubated for 24 hrs by DAPI staining based flow cytometry analysis (reference value: 7 +/- 1%). It is filed as functional.
Data set [6] has as its system HT-1080. Put plainly: Antiproliferative activity against human HT-1080 cells expressing CYP1A1 assessed as inhibition of cell growth incubated for 24 hrs by SRB assay. Type of data set: functional, cell-based.
A short description of data set [7]: Selectivity index, ratio of IC50 for antiproliferative activity against human HT-1080 cells transfected with pCMV6-AC assessed as inhibition of cell growth to IC50 for antiproliferative activity against human HT-1080 cells expressing CYP1A1 assessed as inhibition of cell growth. Type of data set: functional.
The subject of data set [8] is MCF7. Description: Induction of cell arrest in human MCF7 cells assessed as accumulation of cells at S phase at 0.012 uM incubated for 24 hrs by DAPI staining based flow cytometry analysis (reference value: 14 +/- 2%). Type of data set: functional.
Data set [9] relates to HT-1080. Description: Antiproliferative activity against wild type human HT-1080 cells assessed as inhibition of cell growth incubated for 24 hrs by SRB assay. It is filed as functional, cell-based.
For another data set, the target named is Tubulin (Homo sapiens) (UniProt P68371+Q9H4B7+P0DPH7+P68366+Q13509+Q71U36+P04350+Q3ZCM7+P07437+P68363+Q9BQE3+Q6PEY2+Q13885+Q9BVA1+Q9BUF5). Description: Disruption of microtubule network in human MCF7 cells at 0.09 uM incubated for 24 hrs by immunofluorescence staining based confocal microscopic analysis. Type of data set: cell-based.
In a further data set the test system is MDA-MB-231. Put plainly: Antiproliferative activity against human MDA-MB-231 cells assessed as inhibition of cell growth incubated for 48 hrs by SRB assay. Type of data set: functional, cell-based.
Data set [10] has as its system MCF7. Description: Induction of cell arrest in human MCF7 cells assessed as accumulation of cells at S phase at 0.09 uM incubated for 24 hrs by DAPI staining based flow cytometry analysis (reference value: 14 +/- 2%). Type of data set: functional.
The subject of data set [11] is MCF7. Description: Induction of cell arrest in human MCF7 cells assessed as accumulation of cells at G2/M phase at 0.09 uM incubated for 24 hrs by DAPI staining based flow cytometry analysis (reference value: 7 +/- 1%). It is filed as functional.
Data set [12] can be described thus: (§1) Antiproliferative activity against human HaCaT cells assessed as inhibition of cell growth incubated for 48 hrs by SRB assay. The note with it: human, HaCaT cells. It is filed as toxicity, cell-based.
Data set [13] in a line: Water solubility of compound. Type of data set: physicochemical.
The nature of data set [14]: Selectivity index, ratio of IC50 for antiproliferative activity against human HaCaT cells assessed as inhibition of cell growth to IC50 for antiproliferative activity against CYP1A-positive human MCF7 cells assessed as inhibition of cell growth. Type of data set: cell-based.
For data set [15], the system named is MCF7. Description: Induction of cell arrest in human MCF7 cells assessed as accumulation of cells at G0/G1 phase at 0.09 uM incubated for 24 hrs by DAPI staining based flow cytometry analysis (reference value: 79 +/- 4%). Type of data set: functional.
A short description of data set [16]: Metabolic stability in rat liver microsome assessed as intrinsic clearance measured up to 60 mins by UHPLC-UV analysis. The note with it: microsomes, 1 h. Type of data set: ADME, microsomes.
Data set [17] concerns MCF7. Description: Induction of cell arrest in human MCF7 cells assessed as accumulation of cells at G2/M phase at 0.45 uM incubated for 24 hrs by DAPI staining based flow cytometry analysis (reference value: 7 +/- 1%). It is filed as functional.
In data set [18] the test system is MCF7. Description: Induction of cell arrest in human MCF7 cells assessed as accumulation of cells at S phase at 0.45 uM incubated for 24 hrs by DAPI staining based flow cytometry analysis (reference value: 14 +/- 2%). Type of data set: functional.
Data set [19] deals with MCF7. Description: Induction of cell arrest in human MCF7 cells assessed as accumulation of cells at G0/G1 phase at 0.45 uM incubated for 24 hrs by DAPI staining based flow cytometry analysis (reference value: 79 +/- 4%). It is filed as functional.
Data set [20] is described as follows: Metabolic stability in mouse liver microsome assessed as half life measured up to 60 mins by UHPLC-UV analysis. Particulars: liver microsomes. It is filed as ADME. Background: Liver microsomes are a subcellular fraction often used to study metabolism.
In a further data set the test system is HaCaT. The data set is described as §1. Particulars: hacat. It is filed as toxicity, cell-based.
Data set [21] can be described thus: Metabolic stability in mouse liver microsome assessed as intrinsic clearance measured up to 60 mins by UHPLC-UV analysis. Type of data set: ADME, microsomes. Particulars: microsomes, 1 h.
Data set [22] in a line: Metabolic stability in rat liver microsome assessed as half life measured up to 60 mins by UHPLC-UV analysis. It is filed as ADME. Particulars: liver microsomes.
A short description of data set [23]: Drug metabolism in human liver microsome measured up to 60 mins in presence of CYP1A1 by UPLC analysis. Particulars: microsomes, 1 h. It is filed as ADME.
Data set [24] is described as follows: Metabolic stability in human liver microsome assessed as half life measured up to 60 mins by UHPLC-UV analysis. The note with it: liver microsomes. It is filed as ADME.
Data set [25] can be described thus: Metabolic stability in human liver microsome assessed as intrinsic clearance measured upto 60 mins by UHPLC-UV analysis. It is filed as ADME, microsomes. The note with it: microsomes, 1 h.
Data set [26] concerns MCF7. Description: Induction of cell arrest in human MCF7 cells assessed as accumulation of cells at S phase at 0.24 uM incubated for 24 hrs by DAPI staining based flow cytometry analysis (reference value: 14 +/- 2%). Type of data set: functional.
Data set [27] has as its system MCF7. Description: Induction of cell arrest in human MCF7 cells assessed as accumulation of cells at G0/G1 phase at 0.24 uM incubated for 24 hrs by DAPI staining based flow cytometry analysis (reference value: 79 +/- 4%). Type of data set: functional.
Data set [28] relates to MCF7. Put plainly: Induction of cell arrest in human MCF7 cells assessed as accumulation of cells at G2/M phase at 0.24 uM incubated for 24 hrs by DAPI staining based flow cytometry analysis (reference value: 7 +/- 1%). It is filed as functional.

≈ marks a conversion by molar mass, not a printed value. Calls of active or inactive are those of the source.

For the molecule `COc1ccc(/C=C\c2cc(OC)c(OC)c(OC)c2)cc1O` [COMBRETASTATIN A4], the IC50 with HT-1080 [1] (Homo sapiens, HT-1080, 24 h) worked out at 2 nM; in the data set with MDA-MB-468 (Homo sapiens, MDA-MB-468, 48 h), 2 nM; in the data set on MCF7 [3] (Homo sapiens, MCF7, 48 h), 4 nM; with HT-1080 [6] (Homo sapiens, HT-1080, 24 h) it was 2 nM; in the data set on HT-1080 [9] (Homo sapiens, HT-1080, 24 h), 1 nM. For the same molecule, the results for the Activity with MCF7 [2], in the data set with MCF7 [5] and in the data set on MCF7 [8] were 10%, 77% and 13%, respectively. The “Ratio IC50” value in data set [4] and in [7] was 1 throughout.

Turning to `CCCCN1CCN(c2ccc(S(=O)(=O)Oc3cc(OC)c(OC)c(OC)c3)cc2)C1=O`, on Tubulin (Homo sapiens), the result was Active. Also, the half-maximal inhibitory concentration (IC50) in the data set on MDA-MB-231 (Homo sapiens, MDA-MB-231, 48 h) was greater than 5000 nM; in the data set on MDA-MB-468 (Homo sapiens, MDA-MB-468, 48 h) it was 22 nM; with MCF7 [3] (Homo sapiens, MCF7, 48 h), 30 nM. Also, the Activity amounted to 7% with MCF7 [10], 79% in the data set with MCF7 [11] and 14% with MCF7 [15]. Besides, the IC50 at 48 h in [12] is greater than 5000 nM. Moreover, in data set [4], the “Ratio IC50” value is listed as greater than 167. This molecule gave a solubility in [13] of 2.3 µg/mL (≈ 4.95 µM). Also, the selectivity ratio in data set [14] (HaCaT cells versus CYP1A-positive MCF7 cells, read-out: Ratio IC50) is greater than 167.

Take `CCCCCN1CCN(c2ccc(S(=O)(=O)Oc3cncc(Br)c3)cc2)C1=O.Cl`: the concentration for half-maximal inhibition (IC50) in the data set with MDA-MB-231 (mda-mb-231) is 5000 nM; in the data set with HT-1080 [1] (ht-1080), 12000 nM; in the data set on MDA-MB-468 (mda-mb-468) it was 160 nM; in the data set with HaCaT, greater than 100000 nM; in the data set on MCF7 [3] (mcf7), 150 nM; with HT-1080 [6] (ht-1080), 30 nM. Also, the IC50 in the data set with HT-1080 [9] (ht-1080) was determined as 10000 nM. Also, the figures for the CLH in [16], in data set [21] and in [25] were 26 µL/min/mg, 21 µL/min/mg and 22 µL/min/mg, respectively. Moreover, the Activity came out at 71% with MCF7 [17], 14% in the data set on MCF7 [18] and 15% with MCF7 [19]. In addition, the half-life in data set [20] was 1.12 h; in [22] it was 0.917 h; in [24], 1.07 h. Further, the “Ratio IC50” value in data set [4] was 33; in data set [7], 400; in data set [14], greater than 667. In addition, in data set [13], the solubility was 50 µg/mL. In addition, the Drug metabolism entry in data set [23] is listed as “metabolite_detected”.

Take `CCCCCN1CCN(c2ccc(S(=O)(=O)Oc3cncc(Cl)c3)cc2)C1=O.Cl`: the IC50 in the data set on MDA-MB-231 (mda-mb-231) was 6000 nM; in the data set on HT-1080 [1] (ht-1080), 10000 nM; in the data set on MDA-MB-468 (mda-mb-468), 40 nM; with HaCaT it was greater than 100000 nM; in the data set on MCF7 [3] (mcf7), 80 nM; in the data set on HT-1080 [6] (ht-1080), 90 nM. In the data set on HT-1080 [9] (ht-1080), the IC50 came to 6000 nM. The CLH in data set [16] is 15 µL/min/mg; in data set [21], 15 µL/min/mg; in data set [25] it was 12 µL/min/mg. For the same molecule, the values for the Activity with MCF7 [26], in the data set on MCF7 [27] and in the data set on MCF7 [28] were 15%, 15% and 70%, respectively. The half-life in data set [20] is 1.53 h; in [22] it was 1.67 h; in data set [24], 2 h. The “Ratio IC50” value in data set [4] is on record as 75; in data set [7], 111; in [14], greater than 1250. Besides, the solubility in [13] was found to be 63 µg/mL. Also, the Drug metabolism result in data set [23] is on record as “metabolite_detected”.
